Assay results taken from ChEMBL document CHEMBL5726657, “Substituted pyrrolo[3,4-e]indolizines, imidazo[1,2-a]pyrrolo[3,4-e]pyridines, pyrrolo[3,4-e][1,2,4]triazolo[1,5-a]pyridines and pyrrolo[3,4-e][1,2,4]triazolo[4,3-a]pyridines as positive allosteric modulators of muscarinic acetylcholine receptor M1” (2019).
pEC50: −log10 of the molar value.

Molecular target: T1, Muscarinic acetylcholine receptor M1 (Homo sapiens, UniProt P11229)
T1 sequence (P11229 whole entry): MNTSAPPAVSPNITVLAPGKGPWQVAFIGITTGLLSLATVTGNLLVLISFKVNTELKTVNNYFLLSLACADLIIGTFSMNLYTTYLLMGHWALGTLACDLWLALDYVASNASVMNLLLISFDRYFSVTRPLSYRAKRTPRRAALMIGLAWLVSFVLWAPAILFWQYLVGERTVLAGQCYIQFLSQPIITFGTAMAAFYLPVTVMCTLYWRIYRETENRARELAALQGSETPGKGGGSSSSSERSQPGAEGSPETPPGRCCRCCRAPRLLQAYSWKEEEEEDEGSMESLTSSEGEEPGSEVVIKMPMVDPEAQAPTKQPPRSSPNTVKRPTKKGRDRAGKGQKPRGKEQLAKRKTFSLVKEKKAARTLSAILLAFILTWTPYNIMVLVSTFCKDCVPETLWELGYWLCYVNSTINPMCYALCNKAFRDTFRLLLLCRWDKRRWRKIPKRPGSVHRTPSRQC
Test: Cell-Based Functional Assay of Muscarinic Acetylcholine Receptor: For high throughput measurement of agonist-evoked increases in intracellular calcium, CHO-K1 cells stably expressing muscarinic receptors were plated in growth medium lacking G418 and hygromycin at 15,000 cells/20 μL/well in Greiner 384-well black-walled, tissue culture (TC)-treated, clear-bottom plates (VWR). Cells were incubated overnight at 37° C. and 5% CO2. The next day, cells were washed using an ELX 405 (BioTek) with four washes (80 μL) of assay buffer then aspirated to 20 μL. Next, 20 μL of 16 μM Fluo-4/acetoxymethyl ester (Invitrogen, Carlsbad, Calif.) prepared as a 2.3 mM stock in DMSO and mixed in a 1:1 ratio with 10% (w/v) Pluronic F-127 and diluted in assay buffer was added to the wells and the cell plates were incubated for 50 min at 37° C. and 5% CO2. Dye was removed by washing with the ELX 405 (four 80 μL washes of assay buffer) then aspirated to 20 μL. Compound master plates were formatted in an 11 point CRC format (1:3 dilutions) in 100% DMSO with a starting concentration of 10 mM using the BRAVO liquid handler (Agilent). […]

## Cn1cc2cc(-c3cc(F)c(CN4Cc5ccc6nccn6c5C4=O)c(F)c3)ccc2n1
  pEC50: 5.00
